Results published in patent US6949679B1, “Polyamine transport inhibitors” (Universite Laval, priority 1998, dated 2005).

Columns and labels:
[1] = system: polyamine transporter; assay: Inhibition of [3H]spermidine uptake in CHO-K1 cells; format: cell-based, Chinese hamster; details: MESC thioether derivatives
Procedure: To 1 ml of an extemporaneously prepared, DTT-free solution of MESC (20 mM in […]) were added 50 μl of 50 mM Tris-HCl (pH 7.0) and 105 μl of a 40 mM solution of either iodoacetamide, LY iodoacetamide or ASIB in a light-protected microcentrifuge tube, and the mixture was incubated for 2 hours at 37° C. […] Excess iodoacetamide was then inactivated by adding DTT to a final concentration of 40 mM and incubating the solution for 2 hours at 37° C. […] The effect of the respective DTT-inactivated iodoacetamide on spermidine transport was determined in parallel by incubating cells with the same reaction mixture from which MESC was omitted. […] J. Biol. […] Cells were then lysed with 200-μl aliquot of 1 N NaOH and incubated for 30 minutes at 60° C. After neutralization with 200 μl of 1 N HCl, radioactivity was determined from a 250-μl of the cell lysate by scintillation counting. Uptake activity was expressed per amount of total cellular protein as determined by the method of Bradford (Bradford, M. M. 1976. Anal. Biochem. 72: 248-254). […] K[…] Ki and Vmax values were then estimated by Lineweaver-Burke analysis. For competitive inhibitors, Ki values were also estimated by measuring uptake activity in the presence of logarithmically increasing concentrations of antagonist, and using the Cheng-Prusoff equation (Cheng, Y.-C. and Prusoff, W. H. 1973. Biochem. Pharmacol. 22: 3099-3108) by iterative curve fitting for a sigmoidal curve. For mixed competitive/noncompetitive inhibition, two methods were used to calculate kinetic constants. […] C. 1976. Enzymes, 3rd Ed., Academic Press, San Diego, Calif.). […] C. 1976. Enzymes, 3rd Ed., Academic Press, San Diego, Calif.). Intracellular Accumulation

[2] = in vitro; details: human
Description: FIG. 34 represents the relative cytotoxicity of sym-norspermidine (NSpd), BABAC and TADAX in ZR-75-1 human breast cancer cells. Data are the mean±SD of triplicate determinations from a representative experiment.

[3] = system: polyamine transporter; assay: Inhibition of [3H]spermidine uptake in ZR-75-1 cells; format: cell-based, human; details: FIG. 32, 20 μM and 3 μM substrate, respectively, read-out: Apparent Ki, spermidine uptake
Procedure: (§1) The rate of putrescine and spermidine transport was determined in ZR-75-1 cells incubated in serum-free RPMI 1640 medium as described (Lessard, M., Zhao, C., Singh, S. M. and Poulin, R. 1995. J. Biol. Chem. 270: 1685-1694), using [^3H]putrescine (30 Ci/mol) and [^3H]spermidine (20 Ci/mol), respectively as substrates for a 20 minute-assay period. Spermine uptake was similarly determined, using 1 μM [^14C]spermine (32 Ci/mol) as substrate. Uptake activity was expressed per amount of DNA as fluorometrically determined using 3,4-diaminobenzoic acid (Simard, J., Dauvois, S., Haagensen, D. E., Lėvesque, C., Mėrand, Y. and Labrie, F. 1990. Endocrinology, 126: 3223-3231). For the determination of spermidine uptake activity in CHO-K1 cells, 80% confluent cell monolayers were rinsed twice with PBS and incubated for 20 minutes at 37° C. in 400 μl of buffer A (20 mM Tris-HCl, pH 7.4; 0.42 mM CaCl2; 0.41 mM MgSO4; 103 mM NaCl; 5.7 mM KCl; 1.1 mM D-glucose) containing 5 μM [^3H]spermidine (20 Ci/mol). Cell cultures were then washed twice with 1 ml PBS containing 5.7 mM sym-norspermidine. Cells were then lysed with 200-μl aliquot of 1 N NaOH and incubated for 30 minutes at 60° C. After neutralization with 200 μl of 1 N HCl, radioactivity was determined from a 250-μl of the cell lysate by scintillation counting. Uptake activity was expressed per amount of total cellular protein as determined by the method of Bradford (Bradford, M. M. 1976. Anal. Biochem. 72: 248-254). Non-specific binding of radioactive substrate was similarly determined in parallel for both cell lines after a 15 second-incubation with 400 μl of ice-cold uptake solution.
Kinetic analysis of polyamine transport was performed by determining uptake activity in the presence of a 3 μM [^3H]putrescine or 1 μM [^3H]spermidine plus increasing concentrations of nonradioactive substrate. K[…] Ki and Vmax values were then estimated by Lineweaver-Burke analysis. For competitive inhibitors, Ki values were also estimated by measuring uptake activity in the presence of logarithmically increasing concentrations of antagonist, and using the Cheng-Prusoff equation (Cheng, Y.-C. and Prusoff, W. H. 1973. Biochem. Pharmacol. 22: 3099-3108) by iterative curve fitting for a sigmoidal curve. For mixed competitive/noncompetitive inhibition, two methods were used to calculate kinetic constants. First, the equation [drawing 2] where v, s, and i are the transport velocity, substrate concentration and inhibitor concentration respectively, was used to calculate the inhibition constants for inhibitor/carrier complex formation (Ki) and carrier/inhibitor/substrate complex formation (Ki′) (Dixon, M. and Webb, E. C. 1976. Enzymes, 3rd Ed., Academic Press, San Diego, Calif.). […]
(§2) In order to evaluate the effectiveness of dimeric triamines as polyamine transport inhibitors, we synthesized N,N′-bis(3-aminopropyl),N,N′-bis(4-aminobutyl)cystamine or BABAC (structure 1, FIG. 25; FIG. 31), and its thiol form N-(3-aminopropyl),N-(4-aminobutyl)cysteamine or AAC (FIG. 31) according to Scheme 4 described above (FIG. 30), using spermidine as a precursor polyamine. The ability of BABAC and AAC to inhibit the intracellular uptake of radio-labeled putrescine and spermidine in the ZR-75-1 human breast cancer cell line was then determined according to standard published procedures (Lessard, et al. and Poulin, et al.) Briefly, ZR-75-1 cells were grown for four days in twenty-four well plates in RPMI 1640 medium supplemented with 10% fetal bovine serum.

[4] = system: polyamine transporter; assay: Inhibition of [14C]spermine uptake in ZR-75-1 cells; format: cell-based, human; details: FIG. 32, read-out: Apparent Ki, spermine uptake
Procedure: as §1, with “Spermine uptake was similarly determined, using 1 μM [^14C]spermine (32 Ci/mol) as substrate.” left out
(§3) Kinetic analysis of polyamine transport was performed by determining uptake activity in the presence of a 3 μM [^3H]putrescine or 1 μM [^3H]spermidine plus increasing concentrations of nonradioactive substrate. K[…] Ki and Vmax values were then estimated by Lineweaver-Burke analysis. For competitive inhibitors, Ki values were also estimated by measuring uptake activity in the presence of logarithmically increasing concentrations of antagonist, and using the Cheng-Prusoff equation (Cheng, Y.-C. and Prusoff, W. H. 1973. Biochem. Pharmacol. 22: 3099-3108) by iterative curve fitting for a sigmoidal curve. For mixed competitive/noncompetitive inhibition, two methods were used to calculate kinetic constants. First, the equation [drawing 2] where v, s, and i are the transport velocity, substrate concentration and inhibitor concentration respectively, was used to calculate the inhibition constants for inhibitor/carrier complex formation (Ki) and carrier/inhibitor/substrate complex formation (Ki′) (Dixon, M. and Webb, E. C. 1976. Enzymes, 3rd Ed., Academic Press, San Diego, Calif.). Alternatively, the value of Ki for a mixed competitor/non-competitor was estimated from the intersect of equations v^−1 vs i at two different substrate concentrations (Dixon, M. and Webb, E. C. 1976. Enzymes, 3rd Ed., Academic Press, San Diego, Calif.). Intracellular Accumulation
as §2

[5] = system: polyamine transporter; assay: Inhibition of [3H]putrescine uptake in ZR-75-1 cells; format: cell-based, human; details: ZR-75-1 cells, FIG. 32; 20 μM and 3 μM substrate, respectively; read-out: Apparent Ki, putrescine uptake
Procedure: as §1, §3, §2

[6] = system: ZR-75-1 cells; assay: Effect on ZR-75-1 cell proliferation (11 days, DNA content); format: cell-based, human; details: 1 mM
Procedure: (§4) For growth studies, ZR-75-1 cells were cultured in MEZR medium or in phenol red-free RPMI 1640 supplemented with 2 mM L-glutamine, 1 mM sodium pyruvate, 15 mM Hepes, antibiotics, 1 nM 17β-estradiol, 0.5 μg of bovine insulin per ml and 5% (v/v) charcoal-treated fetal bovine serum (SD medium), as indicated in the text. When polyamines or polyamine analogs were added to serum-containing media, 1 mM aminoguanidine was added to inhibit bovine serum amine oxidase (BSAO) activity (Morgan, D. M. L. 1989, in The Physiology of Polyamines (Bachrach, U., and Heimer, Y. M. eds) Vol. I, pp. 203-229, CRC Press, Boca Raton). The effect of the transport inhibitors on cell growth was measured by incubating ZR-75-1 cells for 11 days in medium supplemented with antagonist, polyamines and/or 1 mM DFMO as indicated, followed by colorimetric determination of DNA content with 3,4-diaminobenzoic acid (Simard, J., Dauvois, S., Haagensen, D. E., Lėvesque C., Mėrand, Y. and Labriė, F. 1990. Endocrinology 126: 3223-3231). Medium was changed every other day in these experiments because of the slow reaction of the compound with an unknown component present in the IMEM and RPMI 1640 medium formulation.
The biocompatibility of DESC, MESC, and DEASC was thus evaluated during a long-term (11-day) incubation with ZR-75-1 cells grown in RPMI 1640 containing 10% (v/v) FBS in the absence and presence of 1 mM aminoguanidine. […] Weak growth inhibition caused by the mixed MESC-cysteamine disulfide, however, apparently involved degradation by a copper amine oxidase.

[7] = system: ZR-75-1 cells; assay: Time course of intracellular [3H]spermidine accumulation in presence of transport antagonists; format: cell-based, human; details: 200 μM CHX, after 4 hours
Procedure: The time course of intracellular accumulation of spermidine in the presence of transport antagonists was determined by incubating ZR-75-1 cells in 24-well plates with DESC (50 or 200 μM) or MESC (200 μM) in dissolved in MEZR medium containing 5 μM [^3H]spermidine in the presence or absence of cycloheximide (CHX, 200 μM), and harvesting at the indicated times for the determination of intracellular radioactive contents, as described above for polyamine uptake assays.

[8] = system: ZR-75-1 cells; assay: Reversal of DFMO-induced growth inhibition by exogenous spermidine; format: cell-based, human; details: Homo sapiens, ZR-75-1, 264 h; 1 mM DFMO, 11-day incubation
Procedure: as §4, with “3223-3231).” for “3223-3231). Medium was changed every other day in these experiments because of the slow reaction of the compound with an unknown component present in the IMEM and RPMI 1640 medium formulation.”
This possibility was assessed by comparing the ability of DESC to prevent the reversal of DFMO-induced growth inhibition by increasing concentrations of exogenous spermidine.

NCCCNCCCC(NCCCN)C(=O)NCCSCC(=O)NCCN1C(=O)c2cc(S(=O)(=O)O)cc3c(N)c(S(=O)(=O)O)cc(c23)C1=O (centres unmarked) [MESC-LY]
Ki toward spermidine uptake compared with MESC [1]: virtually identical to that of MESC

NCCCCN(CCCN)CCSSCCN(CCCN)CCCCN [BABAC, N,N′-bis(3-aminopropyl),N,N′-bis(4-aminobutyl)cystamine]
IC50 ([2]; ZR-75-1 cells): 17 µM | Ki [3]: 0.68 µM | Ki [4]: 2.1 µM | Ki [5]: 0.15 µM

NCCCNCCCN [sym-norspermidine, N-(3-aminopropyl)-1,3-diaminopropane, reference compound]
IC50 [2]: 6.4 µM

NCCCCN(CCS)CCCN [AAC, N-(3-aminopropyl),N-(4-aminobutyl)cysteamine]
Ki [3]: 4.37 µM | Ki [4]: 3.9 µM | Ki [5]: 0.54 µM

N=C(N)NN [aminoguanidine, reference compound]
Effect of aminoguanidine alone on cell growth [6]: slight inhibitory effect

[N-]=[N+]=Nc1ccc(C(=O)NCCCCNC(=O)CSCCNC(=O)C(CCCNCCCN)NCCCN)c(O)c1 (centres unmarked) [MESC-ASIB]
Ki toward spermidine uptake compared with MESC [1]: virtually identical to that of MESC

C[C@@H]1C[C@@H]([C@H](O)CC2CC(=O)NC(=O)C2)C(=O)[C@@H](C)C1 [CHX, cycloheximide, reference compound]
Increase in spermidine accumulation [7]: 4 fold

NCCCNCCCC(NCCCN)C(=O)NCCSCC(N)=O (centres unmarked) [MESC-acetamide]
Ki toward spermidine uptake compared with MESC [1]: virtually identical to that of MESC

NCCCC(N)(C(=O)O)C(F)F (racemic) [DFMO, D,L-α-difluoromethylornithine]
inhibition at 1000 µM [8]: ~50%
